From ChEMBL document CHEMBL5252628, “Novel xanthone antibacterials: Semi-synthesis, biological evaluation, and the action mechanisms” (Bioorg Med Chem, 2023) come the findings set out here.

Values after ≈ are worked out from the molar mass of the structure shown. Active and inactive are the calls of the source. The calls are words filed in the database; no cut-off is given here. Where a SMILES comes first, the peptide text is derived from it. [ ]: non-standard residue; d: D form. Orn = NCCC[C@H](N)C(=O)O Where only a bound is given, the exact number is not on record here.

Data set [1] relates to Staphylococcus aureus. Kind of data set: Antibacterial activity against methicillin-resistant Staphylococcus aureus 2 assessed as separation of plasma wall at 5 x MIC incubated for 2 hrs by transmission electron microscopy analysis. The format is functional, organism-based.
Data set [2] has as its system Staphylococcus aureus. Kind of data set: Antibacterial activity against Staphylococcus aureus ATCC 29213 assessed as separation of plasma wall at 5 x MIC incubated for 2 hrs by transmission electron microscopy analysis. It is filed as functional, organism-based.
Data set [3] deals with Staphylococcus aureus. Kind of data set: Antibacterial activity against methicillin-resistant Staphylococcus aureus 2 assessed as blurred space in cytoplasm and cell wall at 5 x MIC incubated for 2 hrs by transmission electron microscopy analysis. The format is functional, organism-based.
Data set [4] has as its system Staphylococcus aureus. Kind of data set: Antibacterial activity against Staphylococcus aureus ATCC 29213 assessed as cell wall loosening at 5 x MIC incubated for 2 hrs by transmission electron microscopy analysis. The format is functional, organism-based.
The subject of data set [5] is Cell membrane. Kind of data set: Induction of cell membrane disruption in methicillin-resistant Staphylococcus aureus 2 assessed as increase in protein leakage at 5 x MIC incubated for 2 hrs by coomassie brilliant blue dye assay. The format is subcellular.
Data set [6] relates to Staphylococcus aureus. Kind of data set: Antibacterial activity against methicillin-resistant Staphylococcus aureus 2 assessed as appearance of cell round pellet at 5 x MIC incubated for 2 hrs by transmission electron microscopy analysis. It is filed as functional, organism-based.
For data set [7], the system named is Staphylococcus aureus. Kind of data set: Antibacterial activity against Staphylococcus aureus ATCC 29213 assessed as appearance of cell round pellet at 5 x MIC incubated for 2 hrs by transmission electron microscopy analysis. It is filed as functional, organism-based.
In data set [8] the test system is Staphylococcus aureus. Kind of data set: Antibacterial activity against Staphylococcus aureus ATCC 29213 assessed as blurred space in cytoplasm and cell wall at 5 x MIC incubated for 2 hrs by transmission electron microscopy analysis. The format is functional, organism-based.
For data set [9], the system named is Staphylococcus aureus. Kind of data set: Antibacterial activity against methicillin-resistant Staphylococcus aureus 2 assessed as cell wall loosening at 5 x MIC incubated for 2 hrs by transmission electron microscopy analysis. It is filed as functional, organism-based.
The subject of data set [10] is Cell membrane. Kind of data set: Induction of cell membrane disruption in Staphylococcus aureus ATCC 29213 assessed as increase in protein leakage at 5 x MIC incubated for 2 hrs by coomassie brilliant blue dye assay. The format is subcellular.
Data set [11] relates to Staphylococcus aureus. Kind of data set: Antibacterial activity against methicillin-resistant Staphylococcus aureus 2 assessed as inhibition of bacterial growth incubated for 18 to 24 hrs by broth microdilution assay. The format is functional. The following applies: time 18-24 hrs.
The test system of data set [12] is Staphylococcus aureus. Kind of data set: Antibacterial activity against Staphylococcus aureus ATCC 29213 assessed as inhibition of bacterial growth incubated for 18 to 24 hrs by broth microdilution assay. The format is functional. The following applies: time 18-24 hrs.
The subject of a further data set is Escherichia coli. Kind of data set: Antibacterial activity against Escherichia coli ATCC 25922 assessed as inhibition of bacterial growth incubated for 18 to 24 hrs by broth microdilution assay. The format is functional. The following applies: time 18-24 hrs. A general note: In broth dilution the organism is exposed to a series of concentrations in liquid medium.

Data set [13] relates to Staphylococcus aureus. Kind of data set: Antibacterial activity against Staphylococcus aureus SH-27 assessed as inhibition of bacterial growth incubated for 18 to 24 hrs by broth microdilution assay. It is filed as functional. The settings on record: time 18-24 hrs.
The subject of data set [14] is Staphylococcus aureus. Kind of data set: Antibacterial activity Staphylococcus aureus ATCC 29213 infected BALB/c mouse assessed as reduction in bacterial burden at 15 mg/kg,iv measured on day 1 and 3 after infection. The format is functional, organism-based.
A short description of data set [15]: Cytotoxicity against human A549 cells assessed as reduction in cell viability incubated for 72 hrs by CCK-8 assay. It is filed as toxicity, cell-based.
The test system of data set [16] is Staphylococcus aureus. Kind of data set: Antibacterial activity against Staphylococcus aureus ATCC 33591 assessed as inhibition of bacterial growth incubated for 18 to 24 hrs by broth microdilution assay. The format is functional. The following applies: time 18-24 hrs.
Data set [17] in a line: Hemolytic activity in rabbit RBC assessed as hemolysis incubated for 1 hr by microtiter plate method. The settings on record: red blood cells. It is filed as toxicity, cell-based, Oryctolagus cuniculus, Erythrocyte.
A short description of data set [18]: Cytotoxicity against human L02 cells assessed as reduction in cell viability incubated for 72 hrs by CCK-8 assay. It is filed as toxicity, cell-based. Background: Formazan colour is commonly taken as a measure of viable cells.
In data set [19] the test system is Staphylococcus aureus. Kind of data set: Antibacterial activity against Staphylococcus aureus ATCC 43300 assessed as inhibition of bacterial growth incubated for 18 to 24 hrs by broth microdilution assay. It is filed as functional. The settings on record: time 18-24 hrs.
In a further data set the test system is Salmonella enteritidis. Kind of data set: Antibacterial activity against Salmonella enteritidis SM012 assessed as inhibition of bacterial growth incubated for 18 to 24 hrs by broth microdilution assay. The format is functional, Salmonella enterica subsp. enterica serovar Enteritidis. The settings on record: Salmonella enterica, time 18-24 hrs.

With `CC(C)C[C@@H]1NC(=O)[C@H](CCCN)NC(=O)[C@H](C(C)C)NC(=O)[C@@H]2CCCN2C(=O)[C@@H](Cc2ccccc2)NC(=O)[C@H](CC(C)C)NC(=O)[C@H](CCCN)NC(=O)[C@H](C(C)C)NC(=O)[C@@H]2CCCN2C(=O)[C@@H](Cc2ccccc2)NC1=O` (cyclo(V[Orn]L[dF]PV[Orn]L[dF]P)), the outcome with Staphylococcus aureus [1], in the data set on Staphylococcus aureus [2], in the data set with Staphylococcus aureus [3], in the data set on Staphylococcus aureus [4], with Cell membrane [5] and with Staphylococcus aureus [6] was Active. Besides, the result in the data set with Staphylococcus aureus [7], in the data set with Staphylococcus aureus [8], in the data set on Staphylococcus aureus [9] and in the data set with Cell membrane [10] was Active.
`CCN1CCN(c2cc3c(cc2F)c(=O)c(C(=O)O)cn3C2CC2)CC1` [ENROFLOXACIN]: the minimum inhibitory concentration (MIC) (in general, the lowest concentration that inhibits growth of the organism) was 32 µg/mL (≈ 89 µM) in the data set with Staphylococcus aureus [11], 0.06 µg/mL (≈ 0.167 µM) with Staphylococcus aureus [12], 0.0156 µg/mL (≈ 0.0434 µM) in the data set on Escherichia coli and 128 µg/mL (≈ 356 µM) in the data set with Staphylococcus aureus [13]. For the same compound, the result in the data set on Staphylococcus aureus [14] was Active.
On to `COc1c(OC(C)=O)cc2oc3cc(O)c(CC=C(C)C)c(O)c3c(=O)c2c1CC=C(C)C`, for which the MIC with Staphylococcus aureus [11] was 2 µg/mL (≈ 4.42 µM); with Staphylococcus aureus [12], 4 µg/mL (≈ 8.84 µM); in the data set on Escherichia coli, > 256 µg/mL; in the data set on Staphylococcus aureus [16], 2 µg/mL (≈ 4.42 µM); in the data set on Staphylococcus aureus [19], 2 µg/mL (≈ 4.42 µM); with Salmonella enteritidis, > 256 µg/mL. In addition, the MIC with Staphylococcus aureus [13] amounted to 2 µg/mL (≈ 4.42 µM). In addition, the results for the 50% inhibitory concentration (IC50) at 72 h in data set [15] and in data set [18] were 17.5 µg/mL (≈ 38.7 µM) and 13.2 µg/mL (≈ 29.2 µM), respectively. For the same compound, the HC50 (commonly the concentration that lyses half of the red blood cells) at 1 h in [17] was > 500 µg/mL.
